Measurements as given in US8268821B2, “Methods and compositions” (priority 2003, dated 2012).

Tested on: cancer-related neuropathic pain
Assay: Open label dose escalation study of flupirtine, case studies JE and RM
Details: for WHO PERFORMANCE STATUS: 0=fully active, 4=completely disabled; for WHO PERFORMANCE STATUS / SCORE SLEEP / SCORE POOR CONCENTRATION: day 1 baseline 3; for neuropathic dwascriminant function score: >0 = neuropathic, day 1 baseline 2.448; for freezing pain score / score for increased pain due to touch / score for increased pain due to weather changes / squeezing pain score: day 1 baseline 0; for burning pain score: day 1 baseline 90; for electric pain score / for shooting pain score / numbness score / score for overly sensitive to touch / tingling pain score / unpleasant pain score: day 1 baseline 95; for overwhelming pain score: day 1 baseline 98; for SCORE MOOD / SCORE RELATIONSHIPS / SCORE SLEEP / SCORE GENERAL ACTIVITY / SCORE WALKING / SCORE ENJOYMENT / SCORE TOTAL ACTIVITY: pain interference 1-10; for SCORE MOOD / SCORE RELATIONSHIPS / SCORE CONSTIPATION / SCORE INDIGESTION / LEAST PAIN LAST 24 HRS / PAIN SCORE RIGHT NOW: day 1 baseline 1; for SCORE GENERAL ACTIVITY: day 1 baseline 5; for SCORE WALKING: day 1 baseline 7; for SCORE ENJOYMENT / SCORE TOTAL ACTIVITY / AVERAGE PAIN LAST 24 HOURS: day 1 baseline 8; for SCORE CONSTIPATION / SCORE INDIGESTION / SCORE NAUSEA / SCORE UN[…] GAIT / SCORE POOR CONCENTRATION / SCORE DROWSINESS / SCORE POOR APPETITE: scale 1-4; for SCORE NAUSEA / SCORE UN[…] GAIT: day 1 baseline 2; for SCORE DROWSINESS / SCORE POOR APPETITE: day 1 baseline 4; for LEAST PAIN LAST 24 HRS / PAIN SCORE RIGHT NOW / AVERAGE PAIN LAST 24 HOURS / WORST PAIN SCORE LAST 24 HOURS: scale to 10; for WORST PAIN SCORE LAST 24 HOURS: day 1 baseline 10
[1] = JE day 2, flupirtine 100 mg qid
[2] = JE day 3, flupirtine 100 mg qid
[3] = JE day 4, flupirtine 200 mg qid
[4] = JE day 5, flupirtine 100 mg qid

With `CCOC(=O)Nc1ccc(NCc2ccc(F)cc2)nc1N` [flupirtine] as the compound, how does the “WHO PERFORMANCE STATUS” value [1] read?
The value was 3.

And the “neuropathic dwascriminant function score” value [1]?
The value was −1.238.

And the freezing pain score [1]?
The freezing pain score was 0.

What about the “score for increased pain due to touch” value [1] of the same compound?
The value was 0.

What about the “score for increased pain due to weather changes” value [1] of the same compound?
Its value is 0.

What about the squeezing pain score [1] of the same compound?
The squeezing pain score was 0.

What about the burning pain score [1] of the same compound?
The burning pain score was 20.

And the electric pain score [1]?
The electric pain score was 0.

And the “for shooting pain score” value [1]?
The value was 10.

And the numbness score [1]?
Its numbness score is 0.

What about the “score for overly sensitive to touch” value [1] of the same compound?
The value was 0.

And the tingling pain score [1]?
Its tingling pain score is 0.

What about the unpleasant pain score [1] of the same compound?
Its unpleasant pain score is 0.

And the overwhelming pain score [1]?
Its overwhelming pain score is 0.

And the “SCORE MOOD” value [1]?
The value was 1.

What about the “SCORE RELATIONSHIPS” value [1] of the same compound?
The value was 1.

What about the “SCORE SLEEP” value [1] of the same compound?
The value was 1.

And the “SCORE GENERAL ACTIVITY” value [1]?
Its value is 1.

And the “SCORE WALKING” value [1]?
The value was 1.

And the “SCORE ENJOYMENT” value [1]?
The value was 1.

And the “SCORE TOTAL ACTIVITY” value [1]?
Its value is 1.

What about the “SCORE CONSTIPATION” value [1] of the same compound?
The value was 3.

What about the “SCORE INDIGESTION” value [1] of the same compound?
Its value is 1.

What about the “SCORE NAUSEA” value [1] of the same compound?
The value was 1.

And the “SCORE UN[…] GAIT” value [1]?
The value was 1.

And the “SCORE POOR CONCENTRATION” value [1]?
Its value is 1.

And the “SCORE DROWSINESS” value [1]?
Its value is 4.

And the “SCORE POOR APPETITE” value [1]?
Its value is 1.

And the “LEAST PAIN LAST 24 HRS” value [1]?
Its value is 0.

And the “PAIN SCORE RIGHT NOW” value [1]?
The value was 0.

And the “AVERAGE PAIN LAST 24 HOURS” value [1]?
Its value is 2.

And the “WORST PAIN SCORE LAST 24 HOURS” value [1]?
The value was 2.

And the “WHO PERFORMANCE STATUS” value [2]?
Its value is 2.

And the “neuropathic dwascriminant function score” value [2]?
Its value is −1.408.

And the freezing pain score [2]?
Its freezing pain score is 0.

And the “score for increased pain due to touch” value [2]?
Its value is 0.

What about the “score for increased pain due to weather changes” value [2] of the same compound?
The value was 0.

And the squeezing pain score [2]?
Its squeezing pain score is 0.

What about the burning pain score [2] of the same compound?
Its burning pain score is 0.

And the electric pain score [2]?
Its electric pain score is 0.

What about the “for shooting pain score” value [2] of the same compound?
The value was 0.

What about the numbness score [2] of the same compound?
The numbness score was 0.

What about the “score for overly sensitive to touch” value [2] of the same compound?
Its value is 0.

And the tingling pain score [2]?
Its tingling pain score is 0.

And the unpleasant pain score [2]?
The unpleasant pain score was 0.

What about the overwhelming pain score [2] of the same compound?
The overwhelming pain score was 0.

And the “SCORE MOOD” value [2]?
Its value is 1.

What about the “SCORE RELATIONSHIPS” value [2] of the same compound?
Its value is 1.

What about the “SCORE SLEEP” value [2] of the same compound?
The value was 1.

And the “SCORE GENERAL ACTIVITY” value [2]?
Its value is 1.

What about the “SCORE WALKING” value [2] of the same compound?
The value was 1.

What about the “SCORE ENJOYMENT” value [2] of the same compound?
Its value is 1.

What about the “SCORE TOTAL ACTIVITY” value [2] of the same compound?
Its value is 1.

And the “SCORE CONSTIPATION” value [2]?
The value was 1.

And the “SCORE INDIGESTION” value [2]?
Its value is 1.

What about the “SCORE NAUSEA” value [2] of the same compound?
The value was 1.

And the “SCORE UN[…] GAIT” value [2]?
The value was 1.

What about the “SCORE POOR CONCENTRATION” value [2] of the same compound?
Its value is 1.

What about the “SCORE DROWSINESS” value [2] of the same compound?
Its value is 3.

And the “SCORE POOR APPETITE” value [2]?
Its value is 1.

What about the “LEAST PAIN LAST 24 HRS” value [2] of the same compound?
Its value is 0.

What about the “PAIN SCORE RIGHT NOW” value [2] of the same compound?
The value was 0.

What about the “AVERAGE PAIN LAST 24 HOURS” value [2] of the same compound?
Its value is 0.

What about the “WORST PAIN SCORE LAST 24 HOURS” value [2] of the same compound?
The value was 0.

What about the “WHO PERFORMANCE STATUS” value [3] of the same compound?
The value was 3.

What about the “neuropathic dwascriminant function score” value [3] of the same compound?
The value was −1.408.

And the freezing pain score [3]?
Its freezing pain score is 0.

What about the “score for increased pain due to touch” value [3] of the same compound?
Its value is 0.

And the “score for increased pain due to weather changes” value [3]?
The value was 0.

And the squeezing pain score [3]?
The squeezing pain score was 0.

And the burning pain score [3]?
The burning pain score was 0.

What about the electric pain score [3] of the same compound?
Its electric pain score is 0.

What about the “for shooting pain score” value [3] of the same compound?
Its value is 0.

What about the numbness score [3] of the same compound?
Its numbness score is 0.

What about the “score for overly sensitive to touch” value [3] of the same compound?
The value was 0.

And the tingling pain score [3]?
Its tingling pain score is 0.

What about the unpleasant pain score [3] of the same compound?
The unpleasant pain score was 0.

What about the overwhelming pain score [3] of the same compound?
The overwhelming pain score was 0.

And the “SCORE MOOD” value [3]?
The value was 1.

What about the “SCORE RELATIONSHIPS” value [3] of the same compound?
The value was 1.

What about the “SCORE SLEEP” value [3] of the same compound?
The value was 1.

And the “SCORE WALKING” value [3]?
Its value is 1.

And the “SCORE ENJOYMENT” value [3]?
The value was 1.

What about the “SCORE TOTAL ACTIVITY” value [3] of the same compound?
The value was 1.

What about the “SCORE CONSTIPATION” value [3] of the same compound?
Its value is 3.

What about the “SCORE INDIGESTION” value [3] of the same compound?
The value was 1.

And the “SCORE NAUSEA” value [3]?
The value was 1.

What about the “SCORE UN[…] GAIT” value [3] of the same compound?
Its value is 4.

What about the “SCORE POOR CONCENTRATION” value [3] of the same compound?
Its value is 2.

What about the “SCORE DROWSINESS” value [3] of the same compound?
The value was 4.

And the “SCORE POOR APPETITE” value [3]?
Its value is 1.

And the “LEAST PAIN LAST 24 HRS” value [3]?
Its value is 0.

What about the “PAIN SCORE RIGHT NOW” value [3] of the same compound?
Its value is 0.

And the “AVERAGE PAIN LAST 24 HOURS” value [3]?
The value was 0.

And the “WORST PAIN SCORE LAST 24 HOURS” value [3]?
Its value is 0.

What about the “WHO PERFORMANCE STATUS” value [4] of the same compound?
The value was 4.

What about the “neuropathic dwascriminant function score” value [4] of the same compound?
The value was −1.408.

And the freezing pain score [4]?
The freezing pain score was 0.

And the “score for increased pain due to touch” value [4]?
The value was 0.

And the “score for increased pain due to weather changes” value [4]?
The value was 0.

And the squeezing pain score [4]?
Its squeezing pain score is 0.

What about the burning pain score [4] of the same compound?
Its burning pain score is 0.

What about the electric pain score [4] of the same compound?
The electric pain score was 0.

And the “for shooting pain score” value [4]?
Its value is 0.

What about the numbness score [4] of the same compound?
The numbness score was 0.

What about the “score for overly sensitive to touch” value [4] of the same compound?
Its value is 0.

And the tingling pain score [4]?
Its tingling pain score is 0.

What about the unpleasant pain score [4] of the same compound?
Its unpleasant pain score is 0.

And the overwhelming pain score [4]?
Its overwhelming pain score is 0.

And the “SCORE MOOD” value [4]?
Its value is 1.

What about the “SCORE RELATIONSHIPS” value [4] of the same compound?
The value was 1.

And the “SCORE SLEEP” value [4]?
Its value is 1.

What about the “SCORE GENERAL ACTIVITY” value [4] of the same compound?
The value was 1.
